{"source": "paper PMC11211886", "about": "(Frontiers in Pharmacology, 2024)", "key": {"plasma proteins [1]": {"tested_on": "plasma proteins", "test": "Plasma protein binding (RED), dog plasma", "type": "in vitro ADME", "procedure": "(§1) The plate containing plasma and buffer was equilibrated for 6 h in a 37°C water shaking bath. After incubation, aliquots of buffer and plasma (20 µL) on both sides were collected and precipitated using organic solvents. […] The post-dialysis recovery of amdizalisib was also measured."}, "[2]": {"test": "Metabolic stability in dog liver microsomes", "type": "in vitro ADME", "settings": "for CLint scaled at 1 µM / half-life at 1 µM: pH 7.4; for CLint scaled at 1 µM: read-out: Predicted CL int, iv vivo; for half-life at 1 µM: read-out: in vitro t1/2", "procedure": "FMO was deactivated by heating liver microsomes at 45°C for 5 min. […] The natural logarithm of the percentage of the drug remaining was plotted against the incubation time, and the slope of the linear regression (-k) was converted to in vitro half-lives (t1/2) using the following equation: […] (1) metabolic clearance is the major mechanism of clearance; (2) liver is the major organ of clearance; and (3) oxidation is the major metabolic pathway. CLint,in vitro=k / Cmicrosomes , Scaled CLint,in vivo=CLint,in vitro×microsomes yield×liver weight, where Cmicrosomes means the experimental protein concentration (0.5 mg/mL) in the incubation system. […] Then, the scaled in vivo intrinsic clearance was used to predict the systemic clearance (equal to the hepatic clearance) using the well-stirred venous equilibration model ([Houston, 1994])."}, "CYP3A4/5": {"tested_on": "CYP3A4/5", "test": "Time-dependent CYP inhibition in HLM, CYP3A4/5", "type": "in vitro ADME, human", "settings": "10 μM, 30 min pre-incubation with NADPH", "procedure": "(§2) The procedure of time-dependent CYP inhibition was similar to that used for CYP reversible inhibition, as mentioned above, except that a pre-incubation step was added. […] Another appropriate volume of the NADPH-regenerating system and probe substrate were added to initiate the CYP isoform enzyme activity test step. For this step, the incubation period was 10 min, except for CYP2B6, CYP2C8, and CYP3A4/5 (probe substrate: midazolam), which was 3 min to make sure the reaction was under initial linear rates. After incubation for the designated time periods at 37°C, the ice-cold acetonitrile containing IS was added to quench the reaction. […] (Ainactivator/[…] represents the enzyme activity remaining due to the inhibition by the diluted inactivator in the enzyme activity test step, and (Ainactivator/[…] represents the remaining enzyme activity due to pre-incubation loss plus inhibition by the diluted inactivator in the enzyme activity test step."}, "Solubility": {"test": "Solubility", "type": "physicochemical", "settings": "water, pH 7.78"}, "CYP2D6": {"biological_target": "T1, CYP2D6 (Homo sapiens, UniProt P10635)", "T1 construct": "tissue Life Technologies (Durham, NC, USA); host or cells: human liver microsomes", "T1 sequence (P10635 whole entry)": "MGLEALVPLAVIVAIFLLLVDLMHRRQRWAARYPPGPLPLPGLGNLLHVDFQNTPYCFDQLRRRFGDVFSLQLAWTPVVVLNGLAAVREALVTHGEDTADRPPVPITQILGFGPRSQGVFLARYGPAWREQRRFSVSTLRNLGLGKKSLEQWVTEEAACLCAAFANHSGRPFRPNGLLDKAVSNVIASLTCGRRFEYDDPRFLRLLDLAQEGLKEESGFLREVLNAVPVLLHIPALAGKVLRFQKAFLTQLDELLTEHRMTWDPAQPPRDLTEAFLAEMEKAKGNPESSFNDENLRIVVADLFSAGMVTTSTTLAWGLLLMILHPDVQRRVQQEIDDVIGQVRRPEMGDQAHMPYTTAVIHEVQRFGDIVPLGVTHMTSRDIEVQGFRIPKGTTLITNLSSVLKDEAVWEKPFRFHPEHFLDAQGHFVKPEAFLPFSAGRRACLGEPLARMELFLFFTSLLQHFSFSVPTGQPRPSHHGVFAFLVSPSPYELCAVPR", "test": "Time-dependent CYP inhibition in HLM, CYP2D6", "type": "in vitro ADME", "settings": "10 μM, 30 min pre-incubation with NADPH", "procedure": "as §2"}, "[3]": {"test": "Metabolic stability in mouse liver microsomes", "type": "in vitro ADME", "procedure": "FMO was deactivated by heating liver microsomes at 45°C for 5 min. […] (1) metabolic clearance is the major mechanism of clearance; (2) liver is the major organ of clearance; and (3) oxidation is the major metabolic pathway. CLint,in vitro=k / Cmicrosomes , Scaled CLint,in vivo=CLint,in vitro×microsomes yield×liver weight, where Cmicrosomes means the experimental protein concentration (0.5 mg/mL) in the incubation system."}, "plasma proteins [4]": {"tested_on": "plasma proteins", "test": "Plasma protein binding (RED), monkey plasma", "type": "in vitro ADME", "procedure": "as §1"}, "[5]": {"test": "Single-dose PK in SD rats (IV/PO)", "set-up": "species or system SD rat", "settings": "in vivo", "source_text": "For the single-dose PK study, twenty-four rats were divided into four groups, with six rats (male: female = 1:1) in each group."}, "[6]": {"settings": "FMO-deactivated liver microsomes, female dog liver microsomes, FMO deactivation"}, "[7]": {"settings": "FMO-deactivated liver microsomes, male dog liver microsomes, FMO deactivation"}, "[8]": {"settings": "female dog liver microsomes, normal"}, "[9]": {"settings": "male dog liver microsomes, normal"}, "[10]": {"settings": "both sexes, SD, rat, iv, 5 mg/kg"}, "[11]": {"settings": "both sexes, SD, rat, po, 1 mg/kg"}, "[12]": {"settings": "both sexes, SD, rat, po, 5 mg/kg"}, "[13]": {"settings": "both sexes, SD, rat, po, 25 mg/kg"}}, "note": "Like-named read-outs stand apart in the source and are kept apart here.", "data": [{"smiles": "C[C@H](Nc1ncnc(N)c1C#N)c1cc2ncc(Cl)n2nc1-c1ccccc1", "note": "[Amdizalisib]", "values": [{"measurement": "Binding fraction to plasma proteins, Dog", "setting": "plasma proteins [1]; 0.1 µM", "value": "87.7 ± 5.15", "unit": "%"}, {"measurement": "Binding fraction to plasma proteins, Dog", "setting": "plasma proteins [1]; 1 µM", "value": "89.1 ± 0.83", "unit": "%"}, {"measurement": "Binding fraction to plasma proteins, Dog", "setting": "plasma proteins [1]; 20 µM", "value": "88.8 ± 0.69", "unit": "%"}, {"measurement": "CLint scaled at 1 µM", "setting": "[2]; [6]", "value": 50.4, "unit": "mL/min/kg"}, {"measurement": "half-life at 1 µM", "setting": "[2]; [6]", "value": 0.66, "unit": "h"}, {"measurement": "CLint scaled at 1 µM", "setting": "[2]; [7]", "value": 19.9, "unit": "mL/min/kg"}, {"measurement": "half-life at 1 µM", "setting": "[2]; [7]", "value": 1.67, "unit": "h"}, {"measurement": "Predicted CL sys", "setting": "[2]; female dog liver microsomes, FMO deactivation", "value": 19.2, "unit": "mL/min/kg"}, {"measurement": "Predicted CL sys", "setting": "[2]; [8]", "value": 18.8, "unit": "mL/min/kg"}, {"measurement": "Predicted CL sys", "setting": "[2]; male dog liver microsomes, FMO deactivation", "value": 12.1, "unit": "mL/min/kg"}, {"measurement": "Predicted CL sys", "setting": "[2]; [9]", "value": 12.4, "unit": "mL/min/kg"}, {"measurement": "CLint scaled at 1 µM", "setting": "[2]; [8]", "value": 48.1, "unit": "mL/min/kg"}, {"measurement": "half-life at 1 µM", "setting": "[2]; [8]", "value": 0.692, "unit": "h"}, {"measurement": "CLint scaled at 1 µM", "setting": "[2]; [9]", "value": 20.7, "unit": "mL/min/kg"}, {"measurement": "half-life at 1 µM", "setting": "[2]; [9]", "value": 1.6, "unit": "h"}, {"measurement": "activity loss of CYP3A4/5", "setting": "CYP3A4/5; substrate midazolam", "value": 16.9, "unit": "%"}, {"measurement": "activity loss of CYP3A4/5", "setting": "CYP3A4/5; substrate testosterone", "value": 11.7, "unit": "%"}, {"measurement": "solubility", "setting": "Solubility", "value": 25, "unit": "µg/mL"}, {"measurement": "activity loss of CYP2D6", "setting": "CYP2D6", "value": "less than 10%"}, {"measurement": "CLint scaled at 1 µM", "setting": "[3]; female, mouse, microsomes, pH 7.4, Predicted CL int, iv vivo", "value": 52.8, "unit": "mL/min/kg"}, {"measurement": "half-life at 1 µM", "setting": "[3]; female, mouse, microsomes, pH 7.4, in vitro t1/2", "value": 1.7, "unit": "h"}, {"measurement": "CLint scaled at 1 µM", "setting": "[3]; male, mouse, microsomes, pH 7.4, Predicted CL int, iv vivo", "value": 50.4, "unit": "mL/min/kg"}, {"measurement": "half-life at 1 µM", "setting": "[3]; male, mouse, microsomes, pH 7.4, in vitro t1/2", "value": 1.8, "unit": "h"}, {"measurement": "half-life at 1 µM", "setting": "[3]; pH 7.4, female mouse liver microsomes, FMO deactivation, read-out: in vitro t1/2", "value": 1.72, "unit": "h"}, {"measurement": "CLint scaled at 1 µM", "setting": "[3]; pH 7.4, female mouse liver microsomes, normal, read-out: Predicted CL int, iv vivo", "value": 53.6, "unit": "mL/min/kg"}, {"measurement": "Binding fraction to plasma proteins, Monkey", "setting": "plasma proteins [4]; 0.1 µM", "value": "90.6 ± 4.56", "unit": "%"}, {"measurement": "Binding fraction to plasma proteins, Monkey", "setting": "plasma proteins [4]; 1 µM", "value": "89.7 ± 0.22", "unit": "%"}, {"measurement": "Binding fraction to plasma proteins, Monkey", "setting": "plasma proteins [4]; 20 µM", "value": "88.9 ± 0.38", "unit": "%"}, {"measurement": "AUC(0-inf)", "setting": "[5]; [10]", "value": 13900, "unit": "ng·h/mL"}, {"measurement": "AUC(0-t)", "setting": "[5]; [10]", "value": 13900, "unit": "ng·h/mL"}, {"measurement": "MRT", "setting": "[5]; [10]", "value": "4.6 ± 2.85", "unit": "h"}, {"measurement": "Vd", "setting": "[5]; [10]", "value": "1.68 ± 0.153", "unit": "L/kg"}, {"measurement": "clearance", "setting": "[5]; [10]", "value": "9.12 ± 6.31", "unit": "mL/min/kg"}, {"measurement": "AUC(0-inf)", "setting": "[5]; [11]", "value": 1320, "unit": "ng·h/mL"}, {"measurement": "AUC(0-t)", "setting": "[5]; [11]", "value": 1140, "unit": "ng·h/mL"}, {"measurement": "Cmax", "setting": "[5]; [11]", "value": "115 ± 79.1", "unit": "ng/mL"}, {"measurement": "MRT", "setting": "[5]; [11]", "value": "7.9 ± 5.28", "unit": "h"}, {"measurement": "AUC(0-inf)", "setting": "[5]; [12]", "value": 6130, "unit": "ng·h/mL"}, {"measurement": "AUC(0-t)", "setting": "[5]; [12]", "value": 6040, "unit": "ng·h/mL"}, {"measurement": "Cmax", "setting": "[5]; [12]", "value": "622 ± 257", "unit": "ng/mL"}, {"measurement": "MRT", "setting": "[5]; [12]", "value": "7.84 ± 5.51", "unit": "h"}, {"measurement": "Tmax", "setting": "[5]; [12]", "value": "1.5 ± 0.548", "unit": "h"}, {"measurement": "half-life", "setting": "[5]; [12]", "value": "5.11 ± 4", "unit": "h"}, {"measurement": "AUC(0-inf)", "setting": "[5]; [13]", "value": 52600, "unit": "ng·h/mL"}, {"measurement": "AUC(0-t)", "setting": "[5]; [13]", "value": 52400, "unit": "ng·h/mL"}, {"measurement": "Cmax", "setting": "[5]; [13]", "value": 3350, "unit": "ng/mL"}, {"measurement": "MRT", "setting": "[5]; [13]", "value": "11 ± 6.61", "unit": "h"}, {"measurement": "half-life", "setting": "[5]; [13]", "value": "5.62 ± 2.86", "unit": "h"}, {"measurement": "half-life", "setting": "[5]; both sexes, SD rat, fasted, IV 5 mg/kg, read-out: t1/2 (converted)", "value": "3.61 ± 2.01", "unit": "h"}, {"measurement": "Tmax", "setting": "[5]; both sexes, SD rat, fasted, PO 1 mg/kg, read-out: Tmax", "value": "2.67 ± 1.75", "unit": "h"}, {"measurement": "half-life", "setting": "[5]; both sexes, SD rat, fasted, PO 1 mg/kg, read-out: t1/2 (converted)", "value": "4.94 ± 3.35", "unit": "h"}, {"measurement": "Tmax", "setting": "[5]; both sexes, SD rat, fasted, PO 25 mg/kg, read-out: Tmax", "value": "4.17 ± 2.23", "unit": "h"}, {"measurement": "CL as % of the hepatic blood flow", "setting": "[5]; both, Sprague-Dawley, rat, iv", "value": 16.6, "unit": "%"}]}]}
